Experimental data published in US20110281807A1, “PLANT DISEASE CONTROL AGENT COMPRISING D-TAGATOSE AS ACTIVE INGREDIENT, AND PLANT DISEASE CONTROL METHOD” (NATIONAL UNIVERSITY CORPORATION KAGAWA UNIVERSITY, priority 2008, published 2011).
Where “and” joins values, the source holds several entries; their conditions need not be identical. Equal values may be shown once.

Assays:
Puccinia recondita = test: wheat brown rust, field trial
Protocol: Test plants (variety: Nourin 61 gou) were sowed and grown until heading stage. D-Tagatose was diluted to 5% with distilled water and sprayed thoroughly on the plants two times every 8 days. Three days after the first spraying of the dilution, wheat leaves inoculated with wheat fusarium blight (Puccinia recondita) were kept in the test plants. The disease severity of the test plants was observed 21 days after last spraying and the effectiveness of test sample was judged. Tests were carried out in duplicate. One plot of each test was 5 m^2. The disease severity of the test plants was judged in accordance with the following criteria. The preventive value was calculated from the degree of disease severity.

Peronospora parasitica = test: cabbage downy mildew, pot test: preventive effect; details: for Preventive value: inoculated 3 days after spraying
Protocol: Test plants (cabbage, variety: Shikidori) were seeded and grown until 4 leaves stage. […] Three days after spraying, a suspension containing condia of cucumber downy mildew (Peronospora parasitica) was inoculated by spraying on test plants. Seven days after inoculation the disease severity of the test plants was observed and the effectiveness of test sample was judged. Tests were carried out using two plants for each test set and the disease severity of test plants was judged in accordance with the following criteria. The preventive value was calculated from the degree of disease severity as in Example 1.

Pythium aphanidermatum = test: cucumber damping-off, pot test: soil drench of D-tagatose combined with fungicides; details: Pythium aphanidermatum, in Cucumis sativus, soil, 336 h, read-out: Preventive value
Protocol: Five seeds of test plants (cucumber, variety: Sagami hanpaku) were sowed in a pot (5×5 cm), which contains infested soil with Pythium aphanidermatum (mycelium 100 g/1 L soil) and was covered with soil. D-Tagatose was diluted to 5000 ppm and the fungicides were diluted to the concentrations listed in table 18, with distilled water. The pot was drenched with 10 ml of the dilution. After 2 weeks, the disease severity of the test plants was observed and the effectiveness of test sample was judged. Tests were carried out in triplicate using 5 plants for each test set and the preventive value was calculated from the germination rate.

Plasmopara viticola = details: Plasmopara viticola, 168 h, read-out: Preventive value
Protocol: Test plants (variety: Neo Muscat) were seeded and grown until three leaves. D-Tagatose was diluted to 5000 ppm and the fungicides were diluted to the concentrations listed in table 16, with distilled water, and 10 ml of the dilution was sprayed on the plants. Three days after the spraying of the dilution, the plants were infected by spraying a sporangium suspension of Plasmopara viticola containing 1×10^3/ml and then put for 16 hours in an inoculation chamber (20° C. to 23° C.) to promote disease. The disease severity of the test plants was observed 7 days after inoculation, and the effectiveness of test sample was judged.

Sphaerotheca fuliginea = details: Podosphaera fuliginea, in Cucumis sativus, 168 h, read-out: Preventive value
Protocol: Test plants (cucumber, variety: Sagami hanpaku) were seeded and grown until the one true leaf stage. D-Tagatose and fungicide were diluted to 5000 ppm and the concentrations listed in table 20, respectively, with distilled water and 10 ml of the dilution was sprayed thoroughly on the plants. Three days after spraying, a condia suspension containing of Sphaerotheca fuliginea were inoculated by spraying on test plants.
Seven days after inoculation the disease severity of the test plants was observed and the effectiveness of test sample was judged.

[1] = 50000 ppm, per plot (1, 2), 100 leaves

Q: How did the “D.D.S (Degree of disease severity), Av” value (Puccinia recondita; 50000 ppm, average of plots) turn out when `O=C(CO)[C@@H](O)[C@@H](O)[C@H](O)CO` [D-Tagatose, D-tagatose] was run?
A: 6.1

Q: What about the “D.D.S (Degree of disease severity)” value (Puccinia recondita; 50000 ppm, per plot (1, 2)) of the same compound?
A: 4.7 and 7.5

Q: And the “Leaves number(n) of disease severity 0” value (Puccinia recondita; [1])?
A: 76 and 68

Q: And the “Leaves number(n) of disease severity 1” value (Puccinia recondita; [1])?
A: 22 and 25

Q: What about the “Leaves number(n) of disease severity 4” value (Puccinia recondita; [1]) of the same compound?
A: 0

Q: What about the “Leaves number(n) of disease severity 5” value (Puccinia recondita; [1]) of the same compound?
A: 0

Q: And the “Leaves number(n) of disease severity 6” value (Puccinia recondita; [1])?
A: 0

Q: What about the “P.V. (Preventive value), Av” value (Puccinia recondita; 50000 ppm, sprayed two times every 8 days, rated 21 days after last spraying) of the same compound?
A: 92.5

Q: What about the effectiveness in words (Puccinia recondita; field trial) of the same compound?
A: effective enough

Q: And the Preventive value (Peronospora parasitica; 10000 ppm spray)?
A: 90.1

Q: And the Preventive value (Peronospora parasitica; 50000 ppm spray)?
A: 95.1

Q: And the effectiveness in words (Peronospora parasitica; foliar spray)?
A: effective enough

Q: What about the pest or weed control at 5000 ppm (Pythium aphanidermatum) of the same compound?
A: 33%

Q: And the pest or weed control at 10000 ppm (Pythium aphanidermatum)?
A: 83%

Q: And the pest or weed control at 5000 ppm (Plasmopara viticola)?
A: 17%

Q: What about the pest or weed control at 10000 ppm (Plasmopara viticola) of the same compound?
A: 67%

Q: What about the pest or weed control at 5000 ppm (Sphaerotheca fuliginea) of the same compound?
A: 40%

Q: And the pest or weed control at 10000 ppm (Sphaerotheca fuliginea)?
A: 93%
